Results as given in ChEMBL document CHEMBL1201862, “PubChem BioAssay data set” (2004).
The source made the active and inactive calls.

Tests used:
[1] = biological target: T1, Voltage-gated N-type calcium channel alpha-1B subunit/Amyloid beta A4 precursor protein-binding family A member 1 (Homo sapiens, UniProt Q00975+Q02410); assay type: protein assay
[2] = biological target: T1, Voltage-gated N-type calcium channel alpha-1B subunit/Amyloid beta A4 precursor protein-binding family A member 1; assay type: protein assay; remark: listed apart in the source
[3] = biological target: G-protein coupled receptor 35 (Homo sapiens, UniProt Q9HC97); assay: inhibition of zaprinast-stimulated GPR35 beta-arrestin translocation – imaging, U2OS, beta-arrestin-GFP, zaprinast agonist, primary screen (AID 2058); assay type: functional;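 note: antagonist potency meaning inhibition of agonist-induced arrestin redistribution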
[4] = biological target: T2, Rac GTPase-activating protein 1 (Homo sapiens, UniProt Q9H0H5); assay: blockers of MgcRacGAP-driven Rac1 GTP hydrolysis – biochemical, ADP Hunter fluorescence, primary and confirmatory, confirmation (AID 624330); assay type: functional
T2 sequence (Q9H0H5 whole entry): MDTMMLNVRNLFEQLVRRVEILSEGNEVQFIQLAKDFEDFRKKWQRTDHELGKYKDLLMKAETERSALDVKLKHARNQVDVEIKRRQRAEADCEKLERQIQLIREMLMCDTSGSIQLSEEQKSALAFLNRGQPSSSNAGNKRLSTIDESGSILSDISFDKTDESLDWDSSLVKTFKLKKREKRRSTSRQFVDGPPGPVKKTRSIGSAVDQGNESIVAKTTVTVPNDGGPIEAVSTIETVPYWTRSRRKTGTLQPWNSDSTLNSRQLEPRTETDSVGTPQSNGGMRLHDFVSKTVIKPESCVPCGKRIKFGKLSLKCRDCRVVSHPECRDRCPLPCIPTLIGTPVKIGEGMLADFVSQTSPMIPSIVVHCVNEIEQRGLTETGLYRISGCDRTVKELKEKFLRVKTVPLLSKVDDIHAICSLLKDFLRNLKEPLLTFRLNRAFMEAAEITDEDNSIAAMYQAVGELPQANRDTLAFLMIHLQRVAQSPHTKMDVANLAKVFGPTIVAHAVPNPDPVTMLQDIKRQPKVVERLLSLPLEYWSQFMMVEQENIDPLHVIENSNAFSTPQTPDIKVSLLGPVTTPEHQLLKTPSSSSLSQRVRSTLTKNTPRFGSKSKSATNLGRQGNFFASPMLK

Cytochrome P450 3A4 = Cytochrome P450 3A4 (Homo sapiens, UniProt P08684);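 note: CYP3A4 tested as one member of a cytochrome P450 panel screen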
[5] = biological target: G-protein coupled receptor 55 (Homo sapiens, UniProt Q9Y2T6); assay: inhibition of LPI-stimulated GPR55 beta-arrestin translocation – imaging, U2OS, beta-arrestin-GFP, LPI agonist, primary screen (AID 2013); assay type: functional;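 note: antagonist potency measured as reduced agonist-driven arrestin aggregation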
Chain of G-protein coupled receptor 55 (Q9Y2T6 whole entry): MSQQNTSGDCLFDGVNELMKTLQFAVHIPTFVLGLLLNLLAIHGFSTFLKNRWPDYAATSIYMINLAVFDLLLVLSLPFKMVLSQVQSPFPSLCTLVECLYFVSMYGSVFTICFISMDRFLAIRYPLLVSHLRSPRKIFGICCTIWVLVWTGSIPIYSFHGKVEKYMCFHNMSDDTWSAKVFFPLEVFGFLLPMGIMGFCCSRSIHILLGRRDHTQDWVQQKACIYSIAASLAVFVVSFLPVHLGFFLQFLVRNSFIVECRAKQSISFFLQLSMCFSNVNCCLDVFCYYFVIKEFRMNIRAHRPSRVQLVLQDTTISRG

Cytochrome P450 2D6 = Cytochrome P450 2D6 (Homo sapiens, UniProt P10635);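 note: CYP2D6 member of a cytochrome P450 panel assay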
Cytochrome P450 2C9 = Cytochrome P450 2C9 (Homo sapiens, UniProt P11712)
Cytochrome P450 1A2 = biological target: T3, Cytochrome P450 1A2 (Homo sapiens, UniProt P05177);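 note: PubChem cytochrome P450 panel assay, CYP1A2 panel member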
T3 sequence (P05177 whole entry): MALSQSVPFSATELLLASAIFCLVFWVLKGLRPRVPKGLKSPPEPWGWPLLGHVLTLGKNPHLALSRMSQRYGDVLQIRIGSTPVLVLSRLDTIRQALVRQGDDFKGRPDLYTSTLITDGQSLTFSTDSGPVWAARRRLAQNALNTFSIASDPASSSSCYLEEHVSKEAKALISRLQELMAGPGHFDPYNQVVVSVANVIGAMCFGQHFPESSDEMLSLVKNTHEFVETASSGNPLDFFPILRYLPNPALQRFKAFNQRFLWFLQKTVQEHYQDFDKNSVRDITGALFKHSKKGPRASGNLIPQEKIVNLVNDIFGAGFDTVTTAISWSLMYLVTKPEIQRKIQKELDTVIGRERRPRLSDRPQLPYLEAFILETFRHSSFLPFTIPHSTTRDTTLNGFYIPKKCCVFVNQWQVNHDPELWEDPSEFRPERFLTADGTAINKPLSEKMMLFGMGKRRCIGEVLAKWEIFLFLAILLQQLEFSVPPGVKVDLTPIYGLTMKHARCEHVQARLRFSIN

[6] = biological target: Eukaryotic translation initiation factor 4H (Homo sapiens, UniProt Q15056); assay: inhibitors of translation initiation factor eIF4H – SAR follow-up (AID 435011); assay type: functional
[7] = biological target: Polyadenylate-binding protein 1 (Homo sapiens, UniProt P11940); assay: PABP inhibition in translation initiation, SAR follow-up (AID 435018); assay type: functional
Chain of Polyadenylate-binding protein 1 (P11940 whole entry): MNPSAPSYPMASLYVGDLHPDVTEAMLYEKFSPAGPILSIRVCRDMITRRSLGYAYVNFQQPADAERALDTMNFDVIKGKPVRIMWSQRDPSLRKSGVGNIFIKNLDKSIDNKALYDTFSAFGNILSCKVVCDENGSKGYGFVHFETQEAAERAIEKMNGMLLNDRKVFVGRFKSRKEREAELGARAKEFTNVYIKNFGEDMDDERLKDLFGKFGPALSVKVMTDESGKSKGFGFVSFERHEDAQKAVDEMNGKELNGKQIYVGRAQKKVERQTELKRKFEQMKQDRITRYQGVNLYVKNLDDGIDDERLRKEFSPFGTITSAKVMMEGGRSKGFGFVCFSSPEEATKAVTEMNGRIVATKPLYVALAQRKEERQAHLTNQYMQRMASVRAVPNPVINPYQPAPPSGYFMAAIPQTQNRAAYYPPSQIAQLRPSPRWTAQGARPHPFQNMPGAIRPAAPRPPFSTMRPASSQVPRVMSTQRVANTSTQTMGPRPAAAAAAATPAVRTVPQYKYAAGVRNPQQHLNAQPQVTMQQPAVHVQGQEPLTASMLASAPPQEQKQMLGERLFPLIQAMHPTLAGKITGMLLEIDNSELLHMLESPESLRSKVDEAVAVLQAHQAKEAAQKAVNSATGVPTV

[8] = biological target: T4, Calpain-2 catalytic subunit (Sus scrofa, UniProt P43367); assay: m-calpain protease blockers, concentration series – biochemical, fluorogenic peptide substrate, dose response (AID 1420); assay type: functional
T4 sequence (P43367 whole entry): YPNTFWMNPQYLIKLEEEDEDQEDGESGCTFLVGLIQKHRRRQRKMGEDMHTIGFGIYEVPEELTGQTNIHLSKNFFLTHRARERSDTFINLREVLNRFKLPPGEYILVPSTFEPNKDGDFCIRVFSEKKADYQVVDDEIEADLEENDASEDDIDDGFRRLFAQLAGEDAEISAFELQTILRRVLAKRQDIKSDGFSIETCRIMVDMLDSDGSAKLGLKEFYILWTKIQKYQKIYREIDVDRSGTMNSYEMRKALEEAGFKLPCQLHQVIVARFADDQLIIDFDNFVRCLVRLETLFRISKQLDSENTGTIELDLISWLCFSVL

SUMO-activating enzyme = SUMO-activating enzyme (Homo sapiens, UniProt Q9UBT2); assay: blockers of UBC9-mediated SUMO conjugation – biochemical, AlphaScreen, SUMOylation inhibitor project, confirmation (AID 2018); assay type: functional
[9] = viability of PTEN-deleted HCT116 cells – cell-based, HCT116 PTEN knockout, dose response (AID 1047); assay type: functional;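 note: HCT116 colon tumor cells with PTEN knocked out; cells exposed to compound for 60 hours before readout; potency for loss of cell viability measured by luminescence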
[10] = viability of HCT116 lacking mutant beta-catenin – cell-based, human colon tumor, dose response (AID 1045); assay type: functional;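 note: HCT116 colon tumor cells with beta catenin knocked out; cells exposed to compound for 60 hours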
[11] = A Cell Based Secondary Assay To Explore Cytotoxicity of Compounds that Sensitize Mycobacterium Tuberculosis to Beta-Lactam Antibiotics.; assay type: functional
CAAX prenyl protease 2 = biological target: T5, CAAX prenyl protease 2 (Homo sapiens, UniProt Q9Y256); assay: inhibition of Ras-converting CAAX protease Rce1 – biochemical, yeast membranes, quenched-peptide fluorescence, cherry-pick, dose response (AID 588849)
T5 sequence (Q9Y256 whole entry): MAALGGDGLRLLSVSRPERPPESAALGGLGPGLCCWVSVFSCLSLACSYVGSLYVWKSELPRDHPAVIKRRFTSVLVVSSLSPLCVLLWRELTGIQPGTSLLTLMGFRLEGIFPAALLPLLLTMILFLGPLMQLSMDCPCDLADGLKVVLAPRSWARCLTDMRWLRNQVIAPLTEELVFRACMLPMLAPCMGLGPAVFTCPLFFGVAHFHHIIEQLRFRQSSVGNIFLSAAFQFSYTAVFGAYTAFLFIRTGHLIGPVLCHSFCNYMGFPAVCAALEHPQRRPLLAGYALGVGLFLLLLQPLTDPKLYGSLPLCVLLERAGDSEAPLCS

[12] = viability of uninfected HEp-2 cells – cell-based, HTS, cytotoxicity control for RSV inhibitor project, dose response (AID 2410); assay type: functional; details: human respiratory syncytial virus
Trypsin = Trypsin (Sus scrofa, UniProt P00761); assay: trypsin protease activity blockade – biochemical, quenched peptide fluorescence, cherry-pick, selectivity assay for Rce1 protease inhibitor project, dose response (AID 488789)
[13] = biological target: T6, Type-1 angiotensin II receptor (Homo sapiens, UniProt P30556); assay: agonist activity at AGTR1 – cell-based, uHTS hits, selectivity assay for APJ receptor agonist project, dose response (AID 488865); assay type: functional;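 note: beta-arrestin recruitment to AT1 measured by enzyme fragment complementation luminescence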
T6 sequence (P30556 whole entry): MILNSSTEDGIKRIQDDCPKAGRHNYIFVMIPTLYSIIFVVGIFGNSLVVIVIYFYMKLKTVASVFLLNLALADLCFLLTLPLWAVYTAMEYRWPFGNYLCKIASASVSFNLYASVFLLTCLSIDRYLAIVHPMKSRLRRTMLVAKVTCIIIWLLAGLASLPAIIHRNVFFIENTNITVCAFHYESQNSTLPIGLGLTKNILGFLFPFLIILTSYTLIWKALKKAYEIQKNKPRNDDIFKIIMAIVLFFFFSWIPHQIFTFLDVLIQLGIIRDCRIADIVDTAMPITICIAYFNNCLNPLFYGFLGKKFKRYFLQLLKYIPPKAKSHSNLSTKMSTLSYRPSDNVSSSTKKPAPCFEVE

[14] = biological target: T7, Ubiquitin-conjugating enzyme E2 N (Homo sapiens, UniProt P61088); assay type: functional
T7 sequence (P61088 whole entry): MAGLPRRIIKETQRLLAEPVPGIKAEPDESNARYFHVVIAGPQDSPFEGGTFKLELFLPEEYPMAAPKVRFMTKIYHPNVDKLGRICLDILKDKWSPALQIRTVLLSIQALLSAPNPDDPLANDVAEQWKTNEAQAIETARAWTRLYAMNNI

Bcl-2-related protein A1 = biological target: T8, Bcl-2-related protein A1 (Mus musculus, UniProt Q07440); assay type: functional;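 note: confirmatory dose–response counterscreen on Bfl-1, used to check hits from a UBC13 polyubiquitin inhibitor campaign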
T8 sequence (Q07440 whole entry): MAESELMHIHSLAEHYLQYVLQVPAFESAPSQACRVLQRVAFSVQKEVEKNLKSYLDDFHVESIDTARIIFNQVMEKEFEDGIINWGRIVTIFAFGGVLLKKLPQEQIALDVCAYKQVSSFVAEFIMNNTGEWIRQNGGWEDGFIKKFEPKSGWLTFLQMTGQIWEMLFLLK

[15] = biological target: T7, Ubiquitin-conjugating enzyme E2 N; assay type: functional; remark: listed apart in the source
[16] = tested on: Streptococcus sp. 'group A'; assay: Streptococcus pyogenes SK(-)GAS viability under kanamycin – luminescence, BacTiterGlo, confirmation, counter-screen for streptokinase expression inhibitor project, dose response (AID 1900); assay type: functional, organism-based
Streptococcus = assay: GAS UMAA2166 growth inhibition – luminescence, BacTiterGlo, counter-screen for streptokinase expression inhibitor project, dose response (AID 1915); assay type: functional, organism-based;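 note: potency for reduction of bacterial viability or growth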
Streptokinase A = biological target: T9, Streptokinase A (Streptococcus pyogenes serotype M1, UniProt P10520); assay: viability-normalized secreted streptokinase activity reduction – plasminogen activation absorbance, OD405, dose response (AID 1914); assay type: functional, Streptococcus pyogenes M1 GAS;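 note: secreted streptokinase activity via plasminogen activation per viability signal from cell pellet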
T9 sequence (P10520 whole entry): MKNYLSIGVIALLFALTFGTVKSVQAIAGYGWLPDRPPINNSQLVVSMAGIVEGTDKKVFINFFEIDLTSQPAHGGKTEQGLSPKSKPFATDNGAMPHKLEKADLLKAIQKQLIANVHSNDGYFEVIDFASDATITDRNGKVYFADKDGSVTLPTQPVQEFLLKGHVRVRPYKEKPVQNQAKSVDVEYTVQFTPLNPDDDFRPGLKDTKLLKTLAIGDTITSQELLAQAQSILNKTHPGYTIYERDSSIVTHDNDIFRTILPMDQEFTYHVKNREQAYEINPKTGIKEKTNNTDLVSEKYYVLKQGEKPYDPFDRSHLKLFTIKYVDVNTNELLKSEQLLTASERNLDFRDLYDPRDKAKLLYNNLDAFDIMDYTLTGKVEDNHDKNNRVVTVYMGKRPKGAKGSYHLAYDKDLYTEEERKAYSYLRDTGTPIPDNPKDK

Hexokinase = Hexokinase (Trypanosoma brucei, UniProt Q38C41); assay: Confirmation assay for inhibitors of Trypanosoma brucei hexokinase 1-Analogue-first series. [Related pubchem assays (depositor defined):AID1430, AID1632, AID2516, AID2560, AID2579, AID2600, AID449725, AID492951]; assay type: functional
Chain of Hexokinase (Q38C41 whole entry): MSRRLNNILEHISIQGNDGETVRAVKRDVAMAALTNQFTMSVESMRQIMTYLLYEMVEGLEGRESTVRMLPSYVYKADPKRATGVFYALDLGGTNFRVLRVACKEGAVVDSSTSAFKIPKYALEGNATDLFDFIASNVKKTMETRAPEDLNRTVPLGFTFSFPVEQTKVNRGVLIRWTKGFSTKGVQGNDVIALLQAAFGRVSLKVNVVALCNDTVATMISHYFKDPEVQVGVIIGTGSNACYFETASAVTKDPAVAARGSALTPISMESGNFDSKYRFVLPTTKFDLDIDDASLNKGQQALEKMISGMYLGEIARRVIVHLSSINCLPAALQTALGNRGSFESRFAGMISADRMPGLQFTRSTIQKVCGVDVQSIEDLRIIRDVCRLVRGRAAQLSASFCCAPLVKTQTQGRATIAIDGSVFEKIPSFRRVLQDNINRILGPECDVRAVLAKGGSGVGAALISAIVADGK

[17] = viability loss in HeLa cells – cytotoxicity control for MgcRacGAP inhibitor project, dose response (AID 624300); assay type: functional
[18] = biological target: Glucose-6-phosphate 1-dehydrogenase (Homo sapiens, UniProt P11413); assay: inhibition of Homo sapiens G6PD, dose series – biochemical, fluorescence, selectivity assay for P. falciparum G6PD inhibitor project, dose response (AID 504792); assay type: functional

T1 sequence (Q00975 whole entry): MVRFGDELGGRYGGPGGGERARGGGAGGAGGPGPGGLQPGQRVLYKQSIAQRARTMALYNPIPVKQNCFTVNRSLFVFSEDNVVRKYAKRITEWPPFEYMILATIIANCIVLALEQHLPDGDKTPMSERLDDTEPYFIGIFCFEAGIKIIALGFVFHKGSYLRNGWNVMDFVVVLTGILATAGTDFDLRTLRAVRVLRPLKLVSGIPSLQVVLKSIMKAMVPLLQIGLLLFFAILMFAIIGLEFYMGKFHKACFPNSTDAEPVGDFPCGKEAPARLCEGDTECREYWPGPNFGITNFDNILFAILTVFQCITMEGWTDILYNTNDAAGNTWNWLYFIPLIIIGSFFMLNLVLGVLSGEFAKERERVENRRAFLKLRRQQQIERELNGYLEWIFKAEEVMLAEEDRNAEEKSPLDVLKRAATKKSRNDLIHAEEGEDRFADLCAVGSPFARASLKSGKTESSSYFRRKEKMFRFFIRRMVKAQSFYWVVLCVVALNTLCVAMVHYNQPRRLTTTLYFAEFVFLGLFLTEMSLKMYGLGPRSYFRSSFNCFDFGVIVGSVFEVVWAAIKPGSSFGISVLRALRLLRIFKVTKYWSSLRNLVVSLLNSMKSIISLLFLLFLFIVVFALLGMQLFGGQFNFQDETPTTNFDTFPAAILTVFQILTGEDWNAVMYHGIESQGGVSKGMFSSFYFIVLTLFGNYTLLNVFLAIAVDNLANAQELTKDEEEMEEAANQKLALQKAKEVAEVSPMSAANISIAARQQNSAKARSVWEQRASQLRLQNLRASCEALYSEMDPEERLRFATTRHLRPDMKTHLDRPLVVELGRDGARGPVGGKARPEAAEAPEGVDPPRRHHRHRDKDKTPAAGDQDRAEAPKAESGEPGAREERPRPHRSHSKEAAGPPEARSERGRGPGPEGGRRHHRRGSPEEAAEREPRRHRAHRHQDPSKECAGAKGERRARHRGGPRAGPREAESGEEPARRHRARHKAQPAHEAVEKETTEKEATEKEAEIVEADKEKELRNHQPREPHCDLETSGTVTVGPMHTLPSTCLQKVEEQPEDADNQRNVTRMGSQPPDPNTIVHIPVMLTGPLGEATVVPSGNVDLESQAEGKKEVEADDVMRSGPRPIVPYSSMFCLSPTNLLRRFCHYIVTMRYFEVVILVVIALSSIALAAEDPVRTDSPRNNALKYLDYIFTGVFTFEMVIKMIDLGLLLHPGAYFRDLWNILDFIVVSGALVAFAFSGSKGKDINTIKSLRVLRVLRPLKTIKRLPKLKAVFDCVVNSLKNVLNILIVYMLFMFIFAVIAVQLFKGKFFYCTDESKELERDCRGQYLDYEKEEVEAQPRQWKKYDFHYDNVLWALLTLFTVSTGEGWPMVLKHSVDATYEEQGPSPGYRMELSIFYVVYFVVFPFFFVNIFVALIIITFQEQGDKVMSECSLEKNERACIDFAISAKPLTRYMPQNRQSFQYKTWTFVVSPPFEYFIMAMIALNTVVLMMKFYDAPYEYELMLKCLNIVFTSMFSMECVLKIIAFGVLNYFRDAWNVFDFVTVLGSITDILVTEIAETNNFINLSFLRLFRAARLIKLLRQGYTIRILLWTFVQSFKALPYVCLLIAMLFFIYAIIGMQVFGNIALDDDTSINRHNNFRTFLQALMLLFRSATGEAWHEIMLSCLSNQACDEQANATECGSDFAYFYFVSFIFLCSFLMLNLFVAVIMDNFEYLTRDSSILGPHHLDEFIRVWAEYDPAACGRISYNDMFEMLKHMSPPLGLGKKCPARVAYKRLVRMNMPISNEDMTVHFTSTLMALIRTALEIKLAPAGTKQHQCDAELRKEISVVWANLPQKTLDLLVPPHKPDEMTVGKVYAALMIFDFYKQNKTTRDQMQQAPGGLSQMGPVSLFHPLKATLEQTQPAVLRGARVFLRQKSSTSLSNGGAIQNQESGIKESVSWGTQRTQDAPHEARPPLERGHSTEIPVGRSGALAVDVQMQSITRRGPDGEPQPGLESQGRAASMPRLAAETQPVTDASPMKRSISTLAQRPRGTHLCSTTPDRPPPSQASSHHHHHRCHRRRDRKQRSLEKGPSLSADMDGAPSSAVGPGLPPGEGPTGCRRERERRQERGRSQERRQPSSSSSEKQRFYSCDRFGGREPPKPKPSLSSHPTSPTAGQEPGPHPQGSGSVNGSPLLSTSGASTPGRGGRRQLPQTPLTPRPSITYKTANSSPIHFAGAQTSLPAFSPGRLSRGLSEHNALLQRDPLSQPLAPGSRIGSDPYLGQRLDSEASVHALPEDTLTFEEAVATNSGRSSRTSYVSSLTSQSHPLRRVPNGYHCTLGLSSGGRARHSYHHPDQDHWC
T1 sequence (Q02410 whole entry): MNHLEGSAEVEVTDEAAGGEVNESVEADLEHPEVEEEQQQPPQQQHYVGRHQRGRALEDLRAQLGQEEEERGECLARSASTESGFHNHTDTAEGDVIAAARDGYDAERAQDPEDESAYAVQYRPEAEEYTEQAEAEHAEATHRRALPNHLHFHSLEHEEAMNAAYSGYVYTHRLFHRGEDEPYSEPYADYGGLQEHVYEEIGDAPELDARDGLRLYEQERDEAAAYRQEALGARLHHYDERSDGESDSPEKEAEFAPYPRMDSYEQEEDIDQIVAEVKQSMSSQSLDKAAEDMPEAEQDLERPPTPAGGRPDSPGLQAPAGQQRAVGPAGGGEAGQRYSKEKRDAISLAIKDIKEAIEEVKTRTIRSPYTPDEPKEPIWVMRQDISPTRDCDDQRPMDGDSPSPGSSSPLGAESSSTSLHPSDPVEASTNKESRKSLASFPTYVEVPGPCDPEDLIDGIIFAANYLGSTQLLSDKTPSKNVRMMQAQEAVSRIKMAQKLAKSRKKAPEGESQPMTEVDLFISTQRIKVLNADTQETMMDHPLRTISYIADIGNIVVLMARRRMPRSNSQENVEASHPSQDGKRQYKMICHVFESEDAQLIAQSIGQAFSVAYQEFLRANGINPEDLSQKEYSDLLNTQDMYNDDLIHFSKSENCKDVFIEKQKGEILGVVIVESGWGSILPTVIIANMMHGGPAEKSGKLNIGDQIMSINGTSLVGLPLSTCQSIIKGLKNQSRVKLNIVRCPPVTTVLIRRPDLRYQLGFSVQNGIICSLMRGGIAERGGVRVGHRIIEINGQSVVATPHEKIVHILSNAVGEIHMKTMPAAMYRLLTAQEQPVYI

## Cc1cccc(NC(=S)NCc2ccco2)n1
[1]
  IC50: 6.94 µM (active)
[2]
  IC50: > 50 µM (inactive)

## N#C/C(=C/c1ccc(N2CCOCC2)o1)c1nc2ccccc2[nH]1
[3]
  IC50: 2.41 µM (active)
[4]
  IC50: 20.4 µM (active)

## NC1=C(c2nc(-c3ccc(F)cc3)cs2)C(=O)CN1CCCN1CCOCC1
Cytochrome P450 3A4
  AC50: 10 µM (inconclusive)
[5]
  IC50: 9.02 µM (active)
Cytochrome P450 2D6
  AC50: 28.2 µM (inconclusive)
Cytochrome P450 2C9
  AC50: 28.2 µM (inconclusive)
Cytochrome P450 1A2
  AC50: 15.8 µM (inconclusive)

## O=C(CSc1ccc(-c2ccco2)nn1)NCc1ccccc1
[6]
  IC50: 57 µM (active)
[7]
  IC50: > 100 µM (inactive)

## COc1ccc(N=C2SC(C(=O)Nc3ccc(F)cc3)CC(=O)N2C)cc1 (centres undefined)
[6]
  IC50: > 100 µM (inactive)
[7]
  IC50: > 100 µM (inactive)

## O=C(Nc1nnc(-c2ccccc2SCc2ccccc2F)s1)Nc1ccccc1F
[8]
  IC50: > 50 µM (not active)
SUMO-activating enzyme
  IC50: 41.1 µM (active)
[9]
  EC50: 5.89 µM (active)
[10]
  EC50: 5.32 µM (active)
[11]
  CC50: 29.5 µM (active)

## NC(=O)c1sc2nc(N3CCCCC3)c3c(c2c1N)CCCC3
CAAX prenyl protease 2
  AC50: 7.04 µM (active)
[12]
  CC50: 15.6 µM (active)
Trypsin
  AC50: 3.58 µM (active)

## CCOc1cc2[nH]c(=S)n(CCCC(=O)NCc3ccccn3)c(=O)c2cc1OCC
[13]
  EC50: > 100 µM (inactive)

## O=C(NCCCN1CCN(c2ccc(F)cc2)CC1)C1CCCN(c2ncnc3c2nc2n3CCCCC2)C1 (centres undefined)
[14]
  IC50: 3.64 µM (active)
Bcl-2-related protein A1
  IC50: > 20 µM (inactive)
[15]
  IC50: 8.08 µM (active)

## c1ccc(-c2noc(-c3ccccc3-c3ccccc3)n2)cc1
[5]
  IC50: 6.09 µM (active)
[16]
  EC50: 11.8 µM (active)
Streptococcus
  EC50: > 150 µM (not active)
Streptokinase A
  EC50: 21.5 µM (active)

## O=c1c2cc(F)ccc2sn1-c1ccccc1Cl
Hexokinase
  IC50: 2.33 µM (active)
[17]
  CC50: 71.9 µM (active)
[4]
  IC50: 35 µM (active)
[18]
  IC50: 15.9 µM (active)

## O=C(Nc1cc(Cl)ccc1C(=O)O)c1ccc(-c2cccs2)cc1
Hexokinase
  IC50: > 25 µM (inactive)
